Consider 13 molecules from patent US20240150293A1, “SPIROCYCLOHEXANE DERIVATIVES, PHARMACEUTICAL COMPOSITIONS CONTAINING THEM AND THEIR USES AS ANTI-APOPTOTIC INHIBITORS” (LES LABORATOIRES SERVIER, priority 2021, published 2024).

For test [1], the target named is Cy5-labelled Mcl1 (amino acids 171-321) C286S protein (UniProtKB Q07820) (Homo sapiens (Human), UniProt Q07820, C286S). As to the kind of experiment: Inhibition of Mcl-1 by the fluorescence quenching assay (Example A, Method B). In kind it is binding. The procedure, abridged:
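Cy5-labelled Mcl1 171-321 C286S (1 nM) quenched by TQ5WS-labelled PUMA peptide (10, 20 or 400 nM); displacement raises fluorescence (Ex 620/Em 680 nm). Buffer 10 mM HEPES, 150 mM NaCl, 0.05% Tween 20, pH 7.4, 5% DMSO; 2 h at room temperature, 11-point curves, IC50 converted to Ki (cKi/eKi).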

The next test concerns NCI-H929 cell lines. Briefly: In vitro cytotoxicity, CellTiter-Glo (CTG) assay (Example B, Method B). Format: cell-based. As to conditions: Homo sapiens, NCI-H929, 48 h, NCI-H929 cells, 48 h incubation, read-out: C50. Summed up: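 NCI-H929 cells exposed to an 11-point compound series from 10 mM DMSO stocks (top final 30 μM) for 48 h at 37° C., 5% CO2. Viability measured as ATP by CellTiter-Glo luminescence; C50 is the concentration giving 50% cellular viability.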

Cy5-labelled Mcl1 (amino acids 171-321) C286S protein, sequence (Q07820 171-321 C286S): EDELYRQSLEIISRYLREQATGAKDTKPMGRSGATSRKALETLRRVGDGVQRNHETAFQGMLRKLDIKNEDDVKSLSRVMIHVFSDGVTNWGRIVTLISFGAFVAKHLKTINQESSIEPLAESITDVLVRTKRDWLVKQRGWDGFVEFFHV

Take `C[C@@H](COc1ccnc2c1[C@H](C)CCC2)C[C@@H]1Cc2ccc(OCC3CC3)cc2[C@]12CC[C@@](Nc1cccc(Cl)c1)(C(=O)O)CC2` [Example 790, (1r,2′R,4R)-4-(3-chloroanilino)-6′-(cyclopropylmethoxy)-2′-[(2R)-2-methyl-3-{[(5R)-5-methyl-5,6,7,8-tetrahydroquinolin-4-yl]oxy}propyl]-2′,3′-dihydrospiro[cyclohexane-1,1′-indene]-4-carboxylic acid]: in test [1], the Ki came to 0.764 nM. For the same molecule, the IC50 with NCI-H929 cell lines is 1460 nM.
The matching figures for `C[C@@H](COc1ccnc2c1[C@H](C)CCC2)C[C@H]1Cc2ccc(OCC3CC3)cc2[C@]12CC[C@@](Nc1cccc(Cl)c1)(C(=O)O)CC2` [Example 791, (1r,2′S,4S)-4-(3-chloroanilino)-6′-(cyclopropylmethoxy)-2′-[(2R)-2-methyl-3-{[(5R)-5-methyl-5,6,7,8-tetrahydroquinolin-4-yl]oxy}propyl]-2′,3′-dihydrospiro[cyclohexane-1,1′-indene]-4-carboxylic acid]: 0.124 nM and 192 nM.
Turning to `C[C@@H](COc1ccnc2c1[C@H](C)CCC2)C[C@H]1Cc2ccc(OCC(F)(F)F)cc2[C@]12CC[C@@](Nc1cccc(Cl)c1)(C(=O)O)CC2` [Example 792, (1r,2′S,4S)-4-(3-chloroanilino)-2′-[(2R)-2-methyl-3-{[(5R)-5-methyl-5,6,7,8-tetrahydroquinolin-4-yl]oxy}propyl]-6′-(2,2,2-trifluoroethoxy)-2′,3′-dihydrospiro[cyclohexane-1,1′-indene]-4-carboxylic acid], in test [1], the Ki amounted to 0.469 nM. Besides, in the test with NCI-H929 cell lines, the IC50 was determined as 143 nM.
With `C[C@@H]1CCCc2nccc(OC[C@@H](C[C@H]3Cc4ccccc4[C@]34CC[C@@](Nc3cccc(Cl)c3)(C(=O)O)CC4)c3ccccc3)c21` [Example 797, (1r,2′S,4S)-4-(3-chloroanilino)-2′-[(2S)-3-{[(5R)-5-methyl-5,6,7,8-tetrahydroquinolin-4-yl]oxy}-2-phenylpropyl]-2′,3′-dihydrospiro[cyclohexane-1,1′-indene]-4-carboxylic acid], in test [1], the Ki amounted to 0.259 nM. In addition, in the test on NCI-H929 cell lines, the IC50 amounted to 251 nM.
As to `COc1cc2c(cc1C)C[C@H](C[C@@H](C)COc1ccnc3c1[C@H](C)CCC3)[C@]21CC[C@](Nc2cccc(Cl)c2)(C(=O)O)CC1` [Example 813, (1r,2′S,4S)-4-(3-chloroanilino)-6′-methoxy-5′-methyl-2′-[(2R)-2-methyl-3-{[(5R)-5-methyl-5,6,7,8-tetrahydroquinolin-4-yl]oxy}propyl]-2′,3′-dihydrospiro[cyclohexane-1,1′-indene]-4-carboxylic acid], the Ki in test [1] was 0.0908 nM. In the test with NCI-H929 cell lines, the IC50 stood at 184 nM.
As for `CCOc1cc2c(cc1Cl)C[C@H](C[C@@H](C)COc1ccnc3c1[C@H](C)CCC3)[C@]21CC[C@](Nc2cccc(Cl)c2)(C(=O)O)CC1` [Example 816, (1r,2′S,4S)-5′-chloro-4-(3-chloroanilino)-6′-ethoxy-2′-[(2R)-2-methyl-3-{[(5R)-5-methyl-5,6,7,8-tetrahydroquinolin-4-yl]oxy}propyl]-2′,3′-dihydrospiro[cyclohexane-1,1′-indene]-4-carboxylic acid], the Ki in test [1] was determined as 0.353 nM. The IC50 in the test on NCI-H929 cell lines was 101 nM.
With `CCOc1cc2c(cc1Br)C[C@H](C[C@@H](C)COc1ccnc3c1[C@H](C)CCC3)[C@]21CC[C@](Nc2cccc(Cl)c2)(C(=O)O)CC1` [Example 817, (1r,2′S,4S)-5′-bromo-4-(3-chloroanilino)-6′-ethoxy-2′-[(2R)-2-methyl-3-{[(5R)-5-methyl-5,6,7,8-tetrahydroquinolin-4-yl]oxy}propyl]-2′,3′-dihydrospiro[cyclohexane-1,1′-indene]-4-carboxylic acid], the Ki in test [1] was determined as 0.229 nM. In the test with NCI-H929 cell lines, the IC50 came to 165 nM.
As for `CCOc1cc2c(cc1F)C[C@H](C[C@@H](C)COc1ccnc3c1[C@H](C)CCC3)[C@]21CC[C@](Nc2cccc(Cl)c2)(C(=O)O)CC1` [Example 818, (1r,2′S,4S)-4-(3-chloroanilino)-6′-ethoxy-5′-fluoro-2′-[(2R)-2-methyl-3-{[(5R)-5-methyl-5,6,7,8-tetrahydroquinolin-4-yl]oxy}propyl]-2′,3′-dihydrospiro[cyclohexane-1,1′-indene]-4-carboxylic acid], the inhibition constant (Ki) in test [1] was determined as 0.0783 nM. In addition, in the test on NCI-H929 cell lines, the IC50 is 106 nM.
For `CC(C)Oc1cc2c(cc1Cl)C[C@H](C[C@@H](C)COc1ccnc3c1[C@H](C)CCC3)[C@]21CC[C@](Nc2cccc(Cl)c2)(C(=O)O)CC1` [Example 819, (1r,2′S,4S)-5′-chloro-4-(3-chloroanilino)-2′-[(2R)-2-methyl-3-{[(5R)-5-methyl-5,6,7,8-tetrahydroquinolin-4-yl]oxy}propyl]-6′-[(propan-2-yl)oxy]-2′,3′-dihydrospiro[cyclohexane-1,1′-indene]-4-carboxylic acid] the same measures were 0.162 nM and 151 nM.
For `C[C@@H](COc1ccnc2c1[C@H](C)CCC2)C[C@H]1Cc2cc(Cl)c(OC3CCCC3)cc2[C@]12CC[C@@](Nc1cccc(Cl)c1)(C(=O)O)CC2` [Example 821, (1r,2′S,4S)-5′-chloro-4-(3-chloroanilino)-6′-(cyclopentyloxy)-2′-[(2R)-2-methyl-3-{[(5R)-5-methyl-5,6,7,8-tetrahydroquinolin-4-yl]oxy}propyl]-2′,3′-dihydrospiro[cyclohexane-1,1′-indene]-4-carboxylic acid], in test [1], the Ki was found to be 0.408 nM. The IC50 in the test with NCI-H929 cell lines stood at 536 nM.
Consider `COCCOc1cc2c(cc1Cl)C[C@H](C[C@@H](C)COc1ccnc3c1[C@H](C)CCC3)[C@]21CC[C@](Nc2cccc(Cl)c2)(C(=O)O)CC1` [Example 822, (1r,2′S,4S)-5′-chloro-4-(3-chloroanilino)-6′-(2-methoxyethoxy)-2′-[(2R)-2-methyl-3-{[(5R)-5-methyl-5,6,7,8-tetrahydroquinolin-4-yl]oxy}propyl]-2′,3′-dihydrospiro[cyclohexane-1,1′-indene]-4-carboxylic acid], for which the Ki in test [1] came out at 0.149 nM. Also, in the test on NCI-H929 cell lines, the IC50 came out at 64.1 nM.
For `COCCCOc1cc2c(cc1Cl)C[C@H](C[C@@H](C)COc1ccnc3c1[C@H](C)CCC3)[C@]21CC[C@](Nc2cccc(Cl)c2)(C(=O)O)CC1` [Example 823, (1r,2′S,4S)-5′-chloro-4-(3-chloroanilino)-6′-(3-methoxypropoxy)-2′-[(2R)-2-methyl-3-{[(5R)-5-methyl-5,6,7,8-tetrahydroquinolin-4-yl]oxy}propyl]-2′,3′-dihydrospiro[cyclohexane-1,1′-indene]-4-carboxylic acid], in test [1], the Ki came to 0.108 nM. In addition, the IC50 in the test on NCI-H929 cell lines worked out at 128 nM.
Regarding `CCOc1cc2c(cc1C)CC(C[C@@H](C)COc1ccnc3c1[C@H](C)CCC3)[C@]21CC[C@](Nc2cccc(Cl)c2)(C(=O)O)CC1` (stereo partly drawn) [Example 824, (1r,4R)-4-(3-chloroanilino)-6′-ethoxy-5′-methyl-2′-[(2R)-2-methyl-3-{[(5R)-5-methyl-5,6,7,8-tetrahydroquinolin-4-yl]oxy}propyl]-2′,3′-dihydrospiro[cyclohexane-1,1′-indene]-4-carboxylic acid], the Ki in test [1] is 0.329 nM. The IC50 in the test with NCI-H929 cell lines was 421 nM.

As usually defined, the Ki is the equilibrium dissociation constant of an inhibitor or competing ligand from its target.
